From patent US20140073634A1 (Institute For Applied Cancer Science/The University of …, priority 2012, published 2014) come the findings set out here.

One may read the IC50 as the concentration that gives 50% inhibition.

This assay deals with 293T-HRE-GFP-luc cells. The assay can be described thus: Cell-based reporter assay for IC50 determinations (HRE-luciferase, hypoxia). The settings on record: 6 h, 6 hrs hypoxia (1% O2), luminescence. The procedure, abridged:
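IC50s come from four-parameter logistic fits of luminescence. Compounds in 1:3 DMSO series were added to 293T-HRE-GFP-luc cells, 30 min normoxia preceding 6 hrs at 1% O2, 37° C; HRE-luciferase signal was then measured with Steadylite Plus reagent.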
A general note: A reporter such as luciferase makes a cellular process visible.

In turn, `O=C1CN(c2cccc(Cn3cc(-c4nc(-c5ccc(OC(F)(F)F)cc5)no4)ccc3=O)c2)CCN1` [Example 167, 4-{3-[(2-oxo-5-{3-[4-(trifluoromethoxy)phenyl]-1,2,4-oxadiazol-5-yl}-1,2-dihydropyridin-1-yl)methyl]phenyl}piperazin-2-one] came in with an IC50 of less than 100 nM.
Under `CN1CCN(c2cccc(Cn3cccc(-c4nc(-c5ccc(OC(F)(F)F)cc5)no4)c3=O)c2)CC1` [Example 270, 1-{[3-(4-methylpiperazin-1-yl)phenyl]methyl}-3-{3-[4-(trifluoromethoxy)phenyl]-1,2,4-oxadiazol-5-yl}-1,2-dihydropyridin-2-one] stands less than 100 nM; under `CN(C)S(=O)(=O)c1cccc(Cn2cc(-c3nc(-c4ccc(OC(F)(F)F)cc4)no3)ccc2=O)c1` [Example 35, N,N-Dimethyl-3-[(2-oxo-5-{3-[4-(trifluoromethoxy)phenyl]-1,2,4-oxadiazol-5-yl}-1,2-dihydropyridin-1-yl)methyl]benzene-1-sulfonamide], less than 100 nM; under `CCN(CC)S(=O)(=O)c1cccc(Cn2cc(-c3nc(-c4ccc(OC(F)(F)F)cc4)no3)ccc2=O)c1` [Example 164, N,N-diethyl-3-[(2-oxo-5-{3-[4-(trifluoromethoxy)phenyl]-1,2,4-oxadiazol-5-yl}-1,2-dihydropyridin-1-yl)methyl]benzene-1-sulfonamide], less than 100 nM.
Under `CNC(=O)c1cccc(Cn2nc(-c3nc(-c4ccc(OC(F)(F)F)cc4)no3)ccc2=O)c1` [Example 131, N-methyl-3-[(6-oxo-3-{3-[4-(trifluoromethoxy)phenyl]-1 2 4-oxadiazol-5-yl}-1 6-dihydropyridazin-1-yl)methyl]benzamide] stands less than 100 nM; under `CN1CCN(c2cccc(Cn3cc(-c4nc(-c5ccc(C(F)(F)F)cc5)no4)ccc3=O)c2)CC1` [Example 63, 1-(3-(4-Methylpiperazin-1-yl)benzyl)-5-(3-(4-(trifluoromethyl)phenyl)-1,2,4-oxadiazol-5-yl)pyridin-2(1H)-one], less than 100 nM.
In the case of `Cc1ccc(C(=O)Nc2ccc(OC(F)(F)F)cc2)c(=O)n1Cc1ccnc(N2CCN(C)CC2)c1` [Example 8, 1-methyl-4-(4-((6-methyl-2-oxo-3-((4-(trifluoromethoxy)phenyl)carbamoyl)pyridin-1(2H)-yl)methyl)pyridin-1-ium-2-yl)piperazin-1-ium bis-trifluoroacetate], the IC50 was less than 100 nM.
Under `O=c1ccc(-c2cc(-c3ccc(OC(F)(F)F)cc3)no2)cn1Cc1cccc(NC2CCS(=O)(=O)CC2)c1` [Example 253, 1-(3-((1,1-dioxidotetrahydro-2H-thiopyran-4-yl)amino)benzyl)-5-(3-(4-(trifluoromethoxy)phenyl)isoxazol-5-yl)pyridin-2(1H)-one] stands less than 100 nM; under `COCCOc1cccc(Cn2cc(-c3noc(-c4ccc(S(=O)(=O)CC(C)C)cc4)n3)ccc2=O)c1` [Example 233, 1-{[3-(2-methoxyethoxy)phenyl]methyl}-5-{5-[4-(2-methylpropanesulfonyl)phenyl]-1,2,4-oxadiazol-3-yl}-1,2-dihydropyridin-2-one], less than 100 nM.
Regarding `CNc1ncc(-c2nc(-c3ccc(=O)n(Cc4cccc(OCCOC)c4)c3)no2)cn1` [Example 245, 1-{[3-(2-methoxyethoxy)phenyl]methyl}-5-{5-[2-(methylamino)pyrimidin-5-yl]-1,2,4-oxadiazol-3-yl}-1,2-dihydropyridin-2-one], the concentration for half-maximal inhibition (IC50) fell in the range of 100 to 1000 nM.
Regarding `COCCOc1cccc(Cn2cc(-c3noc(-c4ccc(C5(C(F)(F)F)CC5)cc4)n3)ccc2=O)c1` [Example 71, 1-(3-(2-Methoxyethoxy)benzyl)-5-(5-(4-(1-(trifluoromethyl)cyclopropyl)phenyl)-1,2,4-oxadiazol-3-yl)pyridin-2(1H)-one], the IC50 was less than 100 nM.
For `COCCOc1cccc(Cn2cc(-c3nnc(-c4ccc(OC(F)F)cc4)o3)ccc2=O)c1` [Example 257, 5-{5-[4-(difluoromethoxy)phenyl]-1,3,4-oxadiazol-2-yl}-1-{[3-(2-methoxyethoxy)phenyl]methyl}-1,2-dihydropyridin-2-one] the value was 100 to 1000 nM; for `NCC(O)COc1cccc(Cn2cc(-c3nc(-c4ccc(OC(F)(F)F)cc4)no3)ccc2=O)c1` (stereo not drawn) [Example 62, 1-(3-(3-Amino-2-hydroxypropoxy)benzyl)-5-(3-(4-(trifluoromethoxy)phenyl)-1,2,4-oxadiazol-5-yl)pyridin-2(1H)-one], less than 100 nM.
The compound `O=C(Cc1cccc(Cn2nc(-c3nc(-c4ccc(OC(F)(F)F)cc4)no3)ccc2=O)c1)N1CCOCC1` [Example 142, 2-({3-[2-(morpholin-4-yl)-2-oxoethyl]phenyl}methyl)-6-{3-[4-(trifluoromethoxy)phenyl]-1,2,4-oxadiazol-5-yl}-2,3-dihydropyridazin-3-one] came in with an IC50 of 100 to 1000 nM.
`Cc1ccc(-c2nnc(-c3ccc(OC(F)(F)F)cc3)o2)c(=O)n1Cc1ccnc(N2CCOCC2)c1` [Example 27, 6-Methyl-1-((2-morpholinopyridin-4-yl)methyl)-3-(5-(4-(trifluoromethoxy)phenyl)-1,3,4-oxadiazol-2-yl)pyridin-2(1H)-one] yielded an IC50 of 100 to 1000 nM.
For `COCCOc1cccc(Cn2cc(-c3noc(-c4ccc(S(=O)(=O)C(F)(F)F)cc4)n3)ccc2=O)c1` [Example 187, 1-{[3-(2-methoxyethoxy)phenyl]methyl}-5-[5-(4-trifluoromethanesulfonylphenyl)-1,2,4-oxadiazol-3-yl]-1,2-dihydropyridin-2-one] the value was less than 100 nM.
For `COCCOc1cccc(Cn2cc(-c3nc(-c4ccc(C5(O)CCOCC5)cc4)no3)ccc2=O)c1` [Example 215, 5-{3-[4-(4-hydroxyoxan-4-yl)phenyl]-1,2,4-oxadiazol-5-yl}-1-{[3-(2-methoxyethoxy)phenyl]methyl}-1,2-dihydropyridin-2-one] the value was 100 to 1000 nM.
As for `COCCOc1cccc(Cn2cc(-c3noc(-c4ccc(OC(F)F)cc4)n3)ccc2=O)c1` [Example 197, 5-{5-[4-(difluoromethoxy)phenyl]-1,2,4-oxadiazol-3-yl}-1-{[3-(2-methoxyethoxy)phenyl]methyl}-1,2-dihydropyridin-2-one], the IC50 is less than 100 nM.
For `CS(=O)(=O)CCCOc1cccc(Cn2cc(-c3nc(-c4ccc(OC(F)(F)F)cc4)no3)ccc2=O)c1` [Example 170, 1-{[3-(3-methanesulfonylpropoxy)phenyl]methyl}-5-{3-[4-(trifluoromethoxy)phenyl]-1,2,4-oxadiazol-5-yl}-1,2-dihydropyridin-2-one] the value was 100 to 1000 nM; for `CC(C)(C)OC(=O)NCCOc1cccc(Cn2cc(-c3nc(-c4ccc(OC(F)(F)F)cc4)no3)ccc2=O)c1` [Example 150, tert-butyl N-(2-{3-[(2-oxo-5-{3-[4-(trifluoromethoxy)phenyl]-1,2,4-oxadiazol-5-yl}-1,2-dihydropyridin-1-yl)methyl]phenoxy}ethyl)carbamate], less than 100 nM; for `COCCOc1cccc(Cn2cc(-c3noc(-c4ccc(C)c(C)c4)n3)ccc2=O)c1` [Example 222, 5-[5-(3,4-dimethylphenyl)-1,2,4-oxadiazol-3-yl]-1-{[3-(2-methoxyethoxy)phenyl]methyl}-1,2-dihydropyridin-2-one], 100 to 1000 nM.
